Source: patent US5427942A (State of Oregon, Acting by and Through the Oregon State …, priority 1991, dated 1995)

Tests used:
[1] = system: D5 pseudogenes D5.psi.1 (HGRI-6) and D5.psi.2 (HGRI-8); assay: [3H]SCH23390 binding to membranes of cells transfected with putative pseudogenes; set-up: species or system human; details: each of the two putative pseudogenes
[2] = system: COS-7 cells; details: previously shown (Zhou et al., 1990); cited from earlier work

SMILES | binding to pseudogene-transfected membranes [1] | ability to bind SCH23390 [2]
CN1CCc2cc(Cl)c(O)cc2[C@@H](c2ccccc2)C1 [[^3 H]SCH23390] | failed to bind | –
CN1CCc2cc(Cl)c(O)cc2[C@@H](c2ccccc2)C1 [SCH23390] | – | lack the ability to bind
